Experimental data as given in patent US20070082953A1, “Use of l-dopa, derivatives thereof and medicaments comprising said compounds for the prophylaxis of psychotic diseases” (priority 2003, published 2007).

Test system: patients with acute schizophrenia
Test: Relapse prophylaxis in schizophrenia patients withdrawn from fluphenazine maintenance therapy
Type: in vivo
Settings: ten clinically stable patients taken off fluphenazine; L-dopa or L-dopa combination preparation given 2 months prior to withdrawal and during the entire withdrawal phase; about 8 of 10 relapses expected within 12 months per literature
Procedure: Ten patients with acute schizophrenia, who had accordingly received maintenance therapy with fluphenazine for more than one year and were clinically stable, were successively taken off this drug. According to clinical experience (see Gitlin M., Nuechterlein K., Subotnik K. L. et al., Am. J. Psychiatry (2001) 158(11), pp. 1835-42), about 8 of the 10 patients would be expected to suffer a relapse within the following 12 months. Our patients were treated with L-dopa or a combination preparation containing L-dopa for 2 months prior to withdrawal and during the entire withdrawal phase. In these patients, a relapse occurred in only 2 of 10 cases.

N[C@@H](Cc1ccc(O)c(O)c1)C(=O)O [L-dopa, 3,4-dihydroxy-L-phenylalanine]
relapse occurred (cases with relapse out of patients treated): 2 of 10
